Measurements reported in PubChem BioAssay AID288 (DTP/NCI, 2004).
“And” between values parts separate entries of the source, which are not always exact repeats. Equal entries are not always repeated. Results filed as inconclusive are left out.

System: BDF1 mice, M5076 sarcoma s.c., survival/tumor T/C
Experiment: NCI In Vivo Anticancer Drug Screen. Data for tumor model Sarcoma M5076 (subcutaneous) in B6D2F1 (BDF1) mice
Description: The antitumor activity of compounds was measured in mice bearing transplantable tumors. Survival or tumor size were measured and the results are expressed as the measurement made in the treated group (T) divided by the measurement made in the vehicle treated control group (C). The tumor model used in this assay is Sarcoma M5076 (subcutaneous) in B6D2F1 (BDF1) mice

[1] = endpoint: median survival time, dose: 50.0 mg/kg/injection, schedule: Q01DX009 (ip), vehicle: saline with Tween-80, higher = longer survival
[2] = endpoint: median survival time, dose: 100.0 mg/kg/injection, schedule: Q01DX009 (ip), vehicle: saline with Tween-80, higher = longer survival
[3] = endpoint: median survival time, dose: 200.0 mg/kg/injection, schedule: Q01DX009 (ip), vehicle: saline with Tween-80, higher = longer survival
[4] = endpoint: median tumor weight (est.), dose: 50.0 mg/kg/injection, schedule: Q01DX009 (ip), vehicle: saline with Tween-80, higher = larger tumour
[5] = endpoint: median tumor weight (est.), dose: 200.0 mg/kg/injection, schedule: Q01DX009 (ip), vehicle: saline with Tween-80, higher = larger tumour
[6] = endpoint: median tumor weight (est.), dose: 100.0 mg/kg/injection, schedule: Q01DX009 (ip), vehicle: saline with Tween-80, higher = larger tumour

For `CC1(CO)C(O)CCC2(C)C1CCC1CC3CC12CCC3(O)CO` (stereo not given), the T/C (endpoint: median survival time, dose: 23.3 mg/kg/injection, schedule: Q01DX017 (sc), vehicle: Klucel (hydroxypropylcellulose) (HPC), higher = longer survival) was 93 % of control, the T/C (endpoint: median survival time, dose: 38.9 mg/kg/injection, schedule: Q01DX017 (oral), vehicle: Klucel (hydroxypropylcellulose) (HPC), higher = longer survival) was 93 % of control and the T/C (endpoint: median survival time, dose: 64.8 mg/kg/injection, schedule: Q01DX017 (ip), vehicle: Klucel (hydroxypropylcellulose) (HPC), higher = longer survival) was 124 % of control. For the same compound, the T/C (endpoint: median survival time, dose: 64.8 mg/kg/injection, schedule: Q01DX017 (oral), vehicle: Klucel (hydroxypropylcellulose) (HPC), higher = longer survival) was 102 % of control and 109 % of control, the T/C (endpoint: median survival time, dose: 64.8 mg/kg/injection, schedule: Q01DX017 (sc), vehicle: Klucel (hydroxypropylcellulose) (HPC), higher = longer survival) was 163 % of control and the T/C (endpoint: median survival time, dose: 77.8 mg/kg/injection, schedule: Q04DX005 (ip), vehicle: Klucel (hydroxypropylcellulose) (HPC), higher = longer survival) was 103 % of control. For the same compound, the T/C (endpoint: median survival time, dose: 83.7 mg/kg/injection, schedule: Q01DX017 (oral), vehicle: Klucel (hydroxypropylcellulose) (HPC), higher = longer survival) was 116 % of control, the T/C (endpoint: median survival time, dose: 100.0 mg/kg/injection, schedule: Q03HX003 (sc), vehicle: Klucel (hydroxypropylcellulose) (HPC), higher = longer survival) was 106 % of control and the T/C (endpoint: median survival time, dose: 100.0 mg/kg/injection, schedule: Q03HX003 (sc), vehicle: saline, higher = longer survival) was 102 % of control. The T/C (endpoint: median survival time, dose: 108.0 mg/kg/injection, schedule: Q01DX017 (ip), vehicle: Klucel (hydroxypropylcellulose) (HPC), higher = longer survival) was 116 % of control, the T/C (endpoint: median survival time, dose: 108.0 mg/kg/injection, schedule: Q01DX017 (oral), vehicle: Klucel (hydroxypropylcellulose) (HPC), higher = longer survival) was 100 % of control and 118 % of control and the T/C (endpoint: median survival time, dose: 108.0 mg/kg/injection, schedule: Q01DX017 (sc), vehicle: Klucel (hydroxypropylcellulose) (HPC), higher = longer survival) was 113 % of control and 121 % of control. For the same compound, the T/C (endpoint: median survival time, dose: 130.0 mg/kg/injection, schedule: Q04DX005 (ip), vehicle: Klucel (hydroxypropylcellulose) (HPC), higher = longer survival) was 103 % of control, the T/C (endpoint: median survival time, dose: 139.0 mg/kg/injection, schedule: Q01DX017 (oral), vehicle: Klucel (hydroxypropylcellulose) (HPC), higher = longer survival) was 118 % of control and the T/C (endpoint: median survival time, dose: 180.0 mg/kg/injection, schedule: Q01DX017 (oral), vehicle: Klucel (hydroxypropylcellulose) (HPC), higher = longer survival) was 116 % of control. For the same compound, the T/C (endpoint: median survival time, dose: 200.0 mg/kg/injection, schedule: Q03HX003 (sc), vehicle: Klucel (hydroxypropylcellulose) (HPC), higher = longer survival) was 98 % of control, the T/C (endpoint: median survival time, dose: 200.0 mg/kg/injection, schedule: Q03HX003 (sc), vehicle: saline, higher = longer survival) was 100 % of control and the T/C (endpoint: median survival time, dose: 216.0 mg/kg/injection, schedule: Q04DX005 (ip), vehicle: Klucel (hydroxypropylcellulose) (HPC), higher = longer survival) was 104 % of control. The T/C (endpoint: median survival time, dose: 300.0 mg/kg/injection, schedule: Q01DX017 (oral), vehicle: Klucel (hydroxypropylcellulose) (HPC), higher = longer survival) was 159 % of control, the T/C (endpoint: median survival time, dose: 360.0 mg/kg/injection, schedule: Q04DX005 (ip), vehicle: Klucel (hydroxypropylcellulose) (HPC), higher = longer survival) was 106 % of control and the T/C (endpoint: median survival time, dose: 600.0 mg/kg/injection, schedule: Q04DX005 (ip), vehicle: Klucel (hydroxypropylcellulose) (HPC), higher = longer survival) was 109 % of control.
`Cc1ncc([N+](=O)[O-])n1CCO` was tested, and the T/C (endpoint: median survival time, dose: 750.0 mg/kg/injection, schedule: Q01DX001 (ip), vehicle: saline, higher = longer survival) was 116 % of control, the T/C (endpoint: median survival time, dose: 1000.0 mg/kg/injection, schedule: Q01DX001 (ip), vehicle: saline with Tween-80, higher = longer survival) was 105 % of control and 85 % of control and the T/C (endpoint: median survival time, dose: 1500.0 mg/kg/injection, schedule: Q01DX001 (ip), vehicle: saline, higher = longer survival) was 89 % of control and 90 % of control. The T/C (endpoint: median survival time, dose: 2000.0 mg/kg/injection, schedule: Q01DX001 (ip), vehicle: saline with Tween-80, higher = longer survival) was 91 % of control, the T/C (endpoint: median survival time, dose: 2000.0 mg/kg/injection, schedule: Q01DX001 (ip), vehicle: saline, higher = longer survival) was 87 % of control (2×) and 89 % of control and the T/C (endpoint: median survival time, dose: 2500.0 mg/kg/injection, schedule: Q01DX001 (ip), vehicle: saline with Tween-80, higher = longer survival) was 78 % of control.
With `Nc1ccc(N2N=C(N3CCCC3)CC2=O)cc1` the T/C [1] was 100 % of control, the T/C [2] was 99 % of control and the T/C [3] was 94 % of control. For the same compound, the T/C [4] was 112 % of control and the T/C [5] was 80 % of control.
For `O=c1[nH]c(=O)n(C2CC(O)C(CO)O2)cc1F` (stereo not given), the T/C (endpoint: mean tumor weight, dose: 20.0 mg/kg/injection, schedule: Q02DX011 (ip), vehicle: Klucel (hydroxypropylcellulose) (HPC), higher = larger tumour) was 66 % of control, the T/C (endpoint: mean tumor weight, dose: 40.0 mg/kg/injection, schedule: Q02DX011 (ip), vehicle: Klucel (hydroxypropylcellulose) (HPC), higher = larger tumour) was 49 % of control and the T/C (endpoint: mean tumor weight, dose: 80.0 mg/kg/injection, schedule: Q02DX011 (ip), vehicle: Klucel (hydroxypropylcellulose) (HPC), higher = larger tumour) was 13 % of control. The T/C (endpoint: median tumor weight (est.), dose: 20.0 mg/kg/injection, schedule: Q02DX011 (ip), vehicle: Klucel (hydroxypropylcellulose) (HPC), higher = larger tumour) was 62 % of control, the T/C (endpoint: median tumor weight (est.), dose: 40.0 mg/kg/injection, schedule: Q02DX011 (ip), vehicle: Klucel (hydroxypropylcellulose) (HPC), higher = larger tumour) was 46 % of control and 70 % of control and the T/C (endpoint: median tumor weight (est.), dose: 160.0 mg/kg/injection, schedule: Q02DX011 (ip), vehicle: Klucel (hydroxypropylcellulose) (HPC), higher = larger tumour) was 23 % of control.
In the case of `O=C1Nc2cnc(Cl)nc2Nc2ccccc21`, the T/C [1] is reported as 97 % of control, the T/C [2] is reported as 94 % of control and the T/C [3] is reported as 95 % of control. The T/C [4] was 90 % of control, the T/C [6] was 75 % of control and the T/C [5] was 86 % of control.
For `CC(=O)Nc1ccc(S(=O)(=O)NNC(=O)C(=O)Nc2cccc(Cl)c2)cc1`, the T/C [1] was 105 % of control, the T/C [2] was 98 % of control and the T/C [3] was 86 % of control. For the same compound, the T/C [4] was 113 % of control, the T/C [6] was 108 % of control and the T/C [5] was 92 % of control.
